Assay results published in patent US4374284A, “Antiulcer, antiinflammatory, and antiallergic agent comprising as the main ingredient olean-12-ene-3β, 30-diol which is devoid of side effects of glycyrrhetinic acid and a new process for preparation of olean-12-ene-3β, 30-diol” (Minophagen Pharmaceutical Company, priority 1980, dated 1983).

Key:
[1] = biological target: T1, Δ^4 -5α-reductase for aldosterone in rat liver (Rattus norvegicus, UniProt P24008); test: inhibitory action on Δ^4-5α-reductase for aldosterone; format: biochemical
T1 construct: The pellet was appropriately diluted with a solution of 0.25 M sucrose-1 mM EDTA to use as a 5α-reductase solution; from tissue; host or cells: rat liver, 105,000 g pellet
T1 sequence (P24008 1-259): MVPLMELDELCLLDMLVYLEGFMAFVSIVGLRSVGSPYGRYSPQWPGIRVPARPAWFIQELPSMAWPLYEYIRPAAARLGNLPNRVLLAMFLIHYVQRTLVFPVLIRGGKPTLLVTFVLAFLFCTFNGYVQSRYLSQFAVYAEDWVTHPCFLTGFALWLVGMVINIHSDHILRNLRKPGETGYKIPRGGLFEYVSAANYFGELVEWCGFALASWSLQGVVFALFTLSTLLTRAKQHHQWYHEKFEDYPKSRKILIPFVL
Protocol: (§1) In vitro experimental results regarding effects of glycyrrhetinic acid (II) and its modified compounds (III), (IV), and (I) on Δ^4 -5α and 5β-reductase for aldosterone in rat liver will be shown below.
(§2) Assay for activity of Δ^4 -5α and 5β-reductase
(§3) (1) Preparation of enzyme solutions
(§4) Rat livers were perfused with saline and excised to prepare a 25% or 50% homogenate with a solution of 0.25 M sucrose and 1 mM EDTA. The homogenate was spun at 10,000 g for 20 minutes to separate supernatant, which was centrifuged again at 105,000 g to obtain Δ^4 -5β-reductase as the supernatant. The pellet was appropriately diluted with a solution of 0.25 M sucrose-1 mM EDTA to use as a 5α-reductase solution.
(§5) (2) Conditions for incubation and assay
(§6) 1 Aldosterone . . . 0.173 μM/0.05 ml ethanol solution
(§7) 2 Glycyrrhetinic acid or its modified compounds . . . 0.173 μM/0.05 ml ethanol solution Control . . . 0.05 ml ethanol solution
(§8) 5α-reductase solution 0.1 ml
(§9) 5β-reductase solution 0.1 ml or 0.2 ml
(§10) 5 Phosphate buffer (0.1 M, pH 7.2) 1 ml
(§11) The components 1 , 2 , 3 , 4 , 5 , and 6 mentioned above were mixed to bring the total volume up to 2.5 ml. The mixture was incubated at 37° C. for 20 minutes. Before the incubation, however, 1 ml aliquot was removed from 2.5 ml of the mixture mentioned above and extracted with 5 ml of methylene dichloride. After the incubation, the remaining 1.5 ml was extracted with 5 ml of methylene dichloride. The optical density of the two methylene dichloride solutions prepared before and after the incubation was measured by a spectrophotometer (Hitachi) at 240 mμ. Inhibition % of Δ^4 -5α and 5β-reductase activity was calculated from the difference in the optical density.

[2] = biological target: T2, Δ^4 -5β-reductase for aldosterone in rat liver (Rattus norvegicus, UniProt P31210); test: inhibitory action on Δ^4-5β-reductase for aldosterone; format: biochemical; conditions: summary in words, liver reductase
T2 construct: centrifuged again at 105,000 g to obtain Δ^4 -5β-reductase as the supernatant; from tissue; host or cells: rat liver, 105,000 g supernatant (cytosol)
T2 sequence (P31210 1-326): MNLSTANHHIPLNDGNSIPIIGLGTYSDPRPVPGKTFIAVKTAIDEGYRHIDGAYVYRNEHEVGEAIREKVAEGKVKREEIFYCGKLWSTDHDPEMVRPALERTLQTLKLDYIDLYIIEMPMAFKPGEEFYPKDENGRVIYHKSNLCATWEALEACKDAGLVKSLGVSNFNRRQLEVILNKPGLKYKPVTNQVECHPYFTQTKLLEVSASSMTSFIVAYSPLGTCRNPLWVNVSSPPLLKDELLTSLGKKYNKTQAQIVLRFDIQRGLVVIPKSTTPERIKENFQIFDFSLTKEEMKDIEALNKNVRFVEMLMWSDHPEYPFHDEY
Protocol: as §1, §2, §3, §4, §5, §6, §7, §8, §9, §10, §11

[3] = test system: Δ^4 -5β-reductase for aldosterone in rat liver; test: as above; format: biochemical; conditions: conclusion from reductase experiments
Protocol: as §1, §2, §3, §4, §5, §6, §7, §8, §9, §10, §11

[4] = test system: stress-induced ulcer; test: mice experiments on stress-induced ulcer (restraint plus water immersion); format: in vivo, male ddY mice; conditions: for ulcer index: 200 mg/kg p.o.
Protocol: (a) Mice Experiments on stress-induced ulcer Experimental procedures:
Male ddY mice weighing about 20 g were made to fast for 18 hours. Water was given freely. Compounds to be tested were suspended in Tween 80 to prepare an aqueous suspension and administered orally. Immediately thereafter, the mice were subjected to restraint plus water immersion stress (25° C.) for 6 hours. Thereafter, the stomach was excised and fixed by formalin. The degree of ulcer was shown as a total of the length. The control group was given only the solvent.

[5] = test system: aspirin-induced ulcer; test: rat experiment on aspirin-induced ulcer, oral (experiment b); format: in vivo, male Wister rats
Protocol: (b) Experimental procedures:
Male Wister rats weighing 120-140 g were made to fast for 24 hours, and compounds to be tested were administered orally. After 5 hours, the rats were killed by a blow. The stomach was excised and observed for the presence of ulcer.
The size of ulcer was measured by ulcer index (ulcer length×width mm^2).

[6] = test system: ulcers induced by acetic acid; test: experiments with rats on ulcers induced by acetic acid (chronic gastric ulcers); format: in vivo; conditions: for ulcer value (major axis × minor axis): p.o., 14 days
Protocol: (c) Experiments with rats on ulcers induced by acetic acid
Chronic gastric ulcers were induced by penetrating 100% acetic acid serosally into gastric wall for 60 sec. using a small cup (6 mm in diameter, 5 mm in height).
From the next day, compounds to be tested were administered orally twice a day (morning and evening) for 14 days. Autopsies were carried out 15 days after the administrations.

[7] = acute toxicity test; format: in vivo, male mice (ddY); conditions: mouse, in vivo
Protocol: (§12) To male mice (ddY) weighing 24 g-26 g, 10 mice in one group, compounds to be tested (suspended in Tween 80) in various doses of the ratio (1, 2) were administered (orally and intraperitoneally), and LD50 was determined by the Litchfield-Wilcoxon method.

[8] = test system: mice; test: acute toxicity test; format: in vivo, male mice (ddY); conditions: oral and intraperitoneal
Protocol: as §12

For CC1(C)[C@@H](O)CC[C@]2(C)[C@H]3CC=C4[C@@H]5C[C@@](C)(CO)CC[C@]5(C)CC[C@@]4(C)[C@]3(C)CC[C@@H]12 [I, olean-12-ene-3β, 30-diol], the inhibition at 0.173 µM ([1]; pH 7.2, read-out: 5α-reductase (inhibition %)) was -7.1%, the “effect upon Δ^4 -5α-5β-reductase (in words), 5α” value ([1]; summary in words, liver reductase) was “no inhibitory activity” and the “effect upon Δ^4 -5α-5β-reductase (in words), 5β” value [2] was “no inhibitory activity”. The “aldosterone-like action (in words)” value [3] was “entirely devoid of aldosterone-like action”, the “inhibitory effect on stress-induced ulcer (in words)” value ([4]; 200 mg/kg) was “showed a stronger inhibitory effect than glycyrrhetinic acid (II)” and the ulcer index ([4]; 1st experiment, control 5.63 ± 0.55) was 2.94 ± 0.81. The ulcer index ([4]; 2nd experiment, control 4.13 ± 0.8) was 2.19 ± 0.6, the ulcer index ([4]; 3rd experiment, control 6.00 ± 0.87) was 3.88 ± 0.79 and the ulcer index ([4]; 4th experiment, control 4.20 ± 0.70) was 1.89 ± 0.53. For the same molecule, the “antiulcer effect compared with glycyrrhetinic acid (in words)” value ([4]; all antiulcer experiments (stress, aspirin, acetic acid)) was “shows superior effects to glycyrrhetinic acid in all the experiments”, the “ulcer index (ulcer length×width)” value ([5]; 200 mg/kg p.o., after 5 hours, control 0) was 0 mm^2 and the “effect on ulcer, experiment (b) (in words)” value ([5]; rat, in vivo) was “did not produce ulcer and inhibited the development of ulcer induced by aspirin”. For the same molecule, the “ulcer value (major axis × minor axis)” value ([6]; Experiment 1, 200 mg/kg (half dose twice/day), control 12.0 ± 2.3) was 10.1 ± 3.4, the “ulcer value (major axis × minor axis)” value ([6]; Experiment 1, 400 mg/kg (half dose twice/day), control 12.0 ± 2.3) was 7.5 ± 0.7 and the “ulcer value (major axis × minor axis)” value ([6]; Experiment 2, 200 mg/kg (half dose twice/day), control 8.9 ± 1.7) was 6.7 ± 2.2. For the same molecule, the “ulcer value (major axis × minor axis)” value ([6]; Experiment 2, 400 mg/kg (half dose twice/day), control 8.9 ± 1.7) was 5.2 ± 1.2, the “ulcer value (major axis × minor axis)” value ([6]; Total, 200 mg/kg (half dose twice/day), control 10.4 ± 1.4) was 8.4 ± 2.0 and the “ulcer value (major axis × minor axis)” value ([6]; Total, 400 mg/kg (half dose twice/day), control 10.4 ± 1.4, * p < 0.05) was 6.2 ± 0.8. For the same molecule, the “inhibitory effect on acetic acid ulcer (in words)” value ([6]; dose of 200 mg) was “showed an inhibitory effect to some extent”, the healing rate ([6]; dose of 400 mg) was “more than 40%” and the “inhibitory effect on acetic acid ulcer (in words)” value ([6]; dose of 400 mg) was “clearly showed inhibitory effects”. For the same molecule, the LD50 ([7]; ip, intraperitoneal administration) was greater than 4000 mg/kg, the LD50 ([7]; oral administration) was greater than 5000 mg/kg and the “acute toxicity (in words)” value [8] was “very low toxicity”.
